The test system of assay [1] is binding between GD3 and 4F6. Kind of assay: Inhibition by nine-residue MAPs of binding between GD3 and 4F6 (Example 5(5), FIG. 6). More on the design: species or system mouse. The note with it: nine-residue MAP compared with the 15 residues. The procedure: Next, in an attempt to determine the domain required for establishing binding to anti-GD3 antibody 4F6 in GD3-mimetic peptides, an MAP of nine N-terminus residues of GD3R3 peptide and an MAP of nine C-terminus residues of the same GD3R3 peptide as shown in FIG. 2 were synthesized, their binding to 4F6 was studied by means of ELISA. ELISA was performed was performed in triplicate, and the values in the graphs are “mean ±SD.”

Assay [2] has as its system T-cell-rich lymphocytes / IL-2-dependent CTLL2 cells. Put plainly: Cell response test: IL-2 activity (3H thymidine up-take of CTLL2 cells) in supernatant of spleen cells of mice immunized with R4 peptide (R4-KLH). The note with it: mice immunized with R4 peptide. It counts as cell-based, mouse. The procedure: Using a fusion peptide R4-KLH obtained in Example 3 (4) between GD3R4 and KLH or a MAP form fusion peptide R4MAP-KLH created between GD3R4 and KLH, immunization was performed as described in (1) above.
Briefly, an emulsion mixed with an adjuvant (1:1, by volume) was administered to each member of groups of mice, each group consisting of 3 mice (CD-1), in an amount of 100 μL/mouse (for one administration (ip), peptide 30 μg/mouse) for immunization. In the case of R4-KLH, administration was performed every one week for one month, and subsequently every two weeks for one month; and in the case of R4MAP-KLH, every one week for 2 months. In any case, 4 days after the final immunization, blood was collected to thereby prepare antiserum samples.
(§1) The spleen aseptically removed from each of the above-immunized mice was minced in a 10% FCS-supplemented RPMI 1640 medium. By use of a nylon wool column, T-cell-rich lymphocytes were prepared and the cells were counted. The above medium containing the cells in an amount of 10^5 cells per 150 μL was added to each of the wells of a culture plate. PHA was added so as to attain a final concentration of 1 μg/mL. A peptide of the present invention or any of different gangliosides in PBS was added, and the mixture was incubated for 96 hours. A supernatant (100 μL) was obtained from each well. The IL-2 activity of the supernatant was determined through use of IL-2-dependent mouse cells, CTLL2. Briefly, the supernatant (100 μL) diluted 2 to 50-fold with a medium was added to the wells in an amount of 10^4 CTLL2 cells/well, followed by incubation at 37° C. for 48 hours. Subsequently, 3H-thymidine (0.5 μCi) was added to each well, followed by incubation for 6 hours. CTLL2 cells were recovered on a paper filter and counted for 3H.

Assay [3] shares this test system. Kind of assay: Cell response test: IL-2 activity (3H thymidine up-take of CTLL2 cells) in supernatant of spleen cells of mice immunized with GD3. The format is cell-based, mouse. The following applies: mice immunized with GD3. The method, then: Similar to the case of immunization with R4-KLH, antiserum samples were also prepared through immunization with GD3 (30 μg).
as §1

The test system of assay [4] is anti-GD3 antibody 4F6. Kind of assay: ELISA of MAPs immobilized at various amounts with 4F6 (Example 5(2), FIG. 3). The format is binding, mouse. The note with it: MAPs or GD3 immobilized at various amounts. An excerpt:
(1) In a manner similar to that described in Example 3, peptides of N-terminus 9 amino acid residues or C-terminus 9 amino acid residues of GD3R1, GD3R2, GD3R3, or GD3R4. The nomenclature and sequences of respective peptides employed in the present test are shown in FIG. 2 These were employed as multi-antigen peptides (MAPs). (2) In order to extend the research on bonding between the anti-GD3 antibody 4F6 and each of the GD3-mimetic peptides shown in FIG. 1, multi-antigen peptides (MAPs) were subjected to ELISA. MAP samples having a variety of concentrations shown on the X-axis in FIG. 3 were provided, and each sample was immobilized onto the wells of a 96-well plate. Subsequently, the wells were blocked with a blocking solution (TBS supplemented with 1% BSA, 0.1% skim milk, and 0.02% Tween 20) at 4° C. overnight. 4F6 (hybridoma supernatant: used in the neat form) was added (100 μL/well) for reaction at room temperature for 2 hours. After completion of reaction, the supernatant was discarded, and the wells were washed with a washing solution (TBS supplemented with 1% FBS and 0.05% Tween 20) six times. Subsequently, the wells were allowed to react with peroxidase-labeled anti-mouse IgG (diluted 1,000-fold with a blocking solution) at room temperature for 2 hours. The wells were again washed with a washing solution four times, and the amount of peroxidase enzyme remaining in each well was detected and quantitatively determined with the substrate TMB, whereby binding of MAP to 4F6 was investigated. The test was performed in triplicate, and the values in the graph are “mean ±SD.”

In assay [5] the test system is binding between GD3 and 4F6. Kind of assay: Inhibition by exogenously added MAPs of binding between GD3 and 4F6 (Example 5(4), FIG. 5). More on the design: species or system mouse. The method, then: (4) Next, investigation was made as to whether binding between GD3R3 or GD3R4 and 4F6 occurred at the GD3 binding site of 4F6. To the wells of a plate to which GD3 had been immobilized (100 ng/well), each of the MAP samples having a variety of concentrations shown on the X-axis in FIG. 5 and 4F6 (100 μL/well) were simultaneously added, whereby an inhibitory test was performed. The test was performed in triplicate, and the values in the graph are “mean ±SD.”

The subject of assay [6] is binding between GD3 and 4F6 (anti-GD3 antibody). Kind of assay: Inhibition by immobilized MAPs of binding between GD3 and 4F6 (Example 5(3), FIG. 4). More on the design: species or system mouse. The following applies: immobilized MAP or GD3 absorbs 4F6. The method, then: (3) The binding affinity shown in FIG. 3 was investigated in another method. Briefly, MAP samples having a variety of concentrations shown on the X-axis in FIG. 4 were provided. Each sample was immobilized onto the wells of a 96-well plate, and the wells were allowed to react with 4F6 (100 μL/well) at 4° C. overnight. On the following day, the supernatant (80 μL) was collected and added to the wells of another plate to which GD3 had been immobilized in advance (100 ng/well) for reaction at room temperature for 2 hours. After completion of reaction, the amount of antibody 4F6 that had been condensed with GD3 (i.e., that had not been absorbed by MAP) was detected and quantitatively determined through the method described (2) above, whereby inhibitory effect of MAP on binding of GD3 to 4F6 was investigated. The test was performed in triplicate, and the values in the graph are “mean ±SD.”

The mark [7] stands for this setting: PHA 1 μg/mL + stimulant 0.5 μg/ml, supernatant dilution ½.
The mark [8] stands for this setting: stimulant 0.5 μg/ml, supernatant dilution 1/20.
[9] abbreviates: stimulant 0.5 μg/ml, supernatant dilution 1/50.
Where [10] appears, read: stimulant 0.5 μg/ml, supernatant dilution ⅕.
The mark [11] stands for this setting: stimulant 1 μg/ml, supernatant dilution 1/20.
Where [12] appears, read: stimulant 1 μg/ml, supernatant dilution 1/50.
Where [13] appears, read: stimulant 1 μg/ml, supernatant dilution ½.
Where [14] appears, read: stimulant 1 μg/ml, supernatant dilution ⅕.
The mark [15] stands for this setting: stimulant 2 μg/ml, supernatant dilution 1/20.
[16] abbreviates: stimulant 2 μg/ml, supernatant dilution 1/50.
[17] abbreviates: stimulant 2 μg/ml, supernatant dilution ½.
The mark [18] stands for this setting: stimulant 2 μg/ml, supernatant dilution ⅕.
Where [19] appears, read: stimulant 5 μg/ml, supernatant dilution 1/20.
[20] abbreviates: stimulant 5 μg/ml, supernatant dilution 1/50.
Where [21] appears, read: stimulant 5 μg/ml, supernatant dilution ½.
[22] abbreviates: stimulant 5 μg/ml, supernatant dilution ⅕.

With “GD3R3C9: MAP of nine C-terminus residues of GD3R3 peptide (YAQRFFLLS)”, in assay [1], the “ability to inhibit binding between GD3 and 4F6 (words, FIG. 6)” value is “comparable ability to the 15 residues”.

For “NeuAc α2-8 NeuAc α2-3 Gal β1-4 Glc β1-1 Cer [GD3, reference compound]”, the “3H Thymidine up-take into CTLL2 cells, mean ± SE (4 wells)” value was 2635 ± 308 in assay [2] (setting [7]); 850 ± 87 in assay [2] (setting [8]); 169 ± 25 in assay [2] (setting [9]); 1792 ± 154 in assay [2] (setting [10]); 794 ± 82 in assay [2] (setting [11]); 202 ± 24 in assay [2] (setting [12]). In addition, the “3H Thymidine up-take into CTLL2 cells, mean ± SE (4 wells)” value was 2721 ± 284 in assay [2] (setting [13]); 1658 ± 134 in assay [2] (setting [14]); 809 ± 74 in assay [2] (setting [15]); 212 ± 28 in assay [2] (setting [16]); 2797 ± 295 in assay [2] (setting [17]); 1722 ± 163 in assay [2] (setting [18]). In addition, the “3H Thymidine up-take into CTLL2 cells, mean ± SE (4 wells)” value in assay [2] (setting [19]) was 764 ± 68; in assay [2] (setting [20]) it was 184 ± 23; in assay [2] (setting [21]), 2619 ± 316; in assay [2] (setting [22]), 1636 ± 145; in assay [3] (setting [7]), 2795 ± 175; in assay [3] (setting [8]) it was 810 ± 72. The “3H Thymidine up-take into CTLL2 cells, mean ± SE (4 wells)” value was 207 ± 22 in assay [3] (setting [9]); 1876 ± 152 in assay [3] (setting [10]); 762 ± 55 in assay [3] (setting [11]); 186 ± 27 in assay [3] (setting [12]); 2568 ± 235 in assay [3] (setting [13]); 1834 ± 169 in assay [3] (setting [14]). In addition, the “3H Thymidine up-take into CTLL2 cells, mean ± SE (4 wells)” value in assay [3] (setting [15]) is listed as 758 ± 61; in assay [3] (setting [16]), 197 ± 28; in assay [3] (setting [17]) it was 2453 ± 264; in assay [3] (setting [18]) it was 1901 ± 188; in assay [3] (setting [19]), 794 ± 68; in assay [3] (setting [20]), 179 ± 23. Moreover, the “3H Thymidine up-take into CTLL2 cells, mean ± SE (4 wells)” value in assay [3] (setting [21]) amounted to 2656 ± 257; in assay [3] (setting [22]), 1857 ± 185. Also, the “binding of 4F6 to immobilized sample (words, FIG. 3)” value in assay [4] was “declined from the concentration 0.8 μg/well and higher”. Further, in assay [5] (added simultaneously with 4F6 to GD3 100 ng/well), the “inhibitory effect of exogenously added sample on binding between GD3 and 4F6 (words, FIG. 5)” value is listed as “exhibited inhibitory effect”. Moreover, in assay [5] (deduced from FIG. 5), the “order of binding strength to 4F6” value is reported as “GD3>GD3R3>GD3R4”. Further, the “inhibition of GD3 binding to 4F6 by immobilized sample (words, FIG. 4)” value in assay [6] was “inhibit GD3 from binding to the antibody”.

Values taken from patent US8017584B2, “GD3-mimetic peptides” (Otsuka Pharmaceutical Co., Ltd., priority 2000, dated 2011).
